Reference: ChEMBL document CHEMBL3046125, “Design and synthesis of niflumic acid-based N-acylhydrazone derivatives as novel anti-inflammatory and analgesic agents” (2013)

Tests used:
Format in all cases: functional
Rattus norvegicus [1] = experiment: Anti-inflammatory activity in Wistar Rattus norvegicus (rat) assessed as inhibition of carrageenan-induced paw edema at 10 mg/kg, ip measured after 4 hr; settings: route intraperitoneal
Rattus norvegicus [2] = experiment: Anti-inflammatory activity in Wistar Rattus norvegicus (rat) assessed as inhibition of carrageenan-induced paw edema at 10 mg/kg, ip measured after 30 min; settings: 0.5 h, route intraperitoneal
Rattus norvegicus [3] = experiment: Anti-inflammatory activity in Wistar Rattus norvegicus (rat) assessed as inhibition of carrageenan-induced paw edema at 10 mg/kg, ip measured after 1 hr; settings: route intraperitoneal
Rattus norvegicus [4] = experiment: Anti-inflammatory activity in Wistar Rattus norvegicus (rat) assessed as inhibition of carrageenan-induced paw edema at 10 mg/kg, ip measured after 2 hr; settings: route intraperitoneal
Mus musculus = experiment: Analgesic activity in NMRI Mus musculus (mouse) assessed as inhibition of acetic acid-induced abdominal writhing at 10 mg/kg administered 30 min prior to acetic acid injection; settings: Abdomen
Rattus norvegicus [5] = experiment: Anti-inflammatory activity in Wistar Rattus norvegicus (rat) assessed as inhibition of carrageenan-induced paw edema at 10 mg/kg, ip measured after 3 hr; settings: route intraperitoneal

Compound	inhibition in vivo at 10 mg/kg (Rattus norvegicus [1])	inhibition in vivo at 10 mg/kg (Rattus norvegicus [2])	inhibition in vivo at 10 mg/kg (Rattus norvegicus [3])	inhibition in vivo at 10 mg/kg (Rattus norvegicus [4])	inhibition in vivo at 10 mg/kg (Mus musculus)	inhibition in vivo at 10 mg/kg (Rattus norvegicus [5])
O=C(N/N=C/c1ccccc1)c1cccnc1Nc1cccc(C(F)(F)F)c1	31%	60.4%	53.9%	36.8%	66.2%	21.2%
O=C(N/N=C/c1cccc(F)c1)c1cccnc1Nc1cccc(C(F)(F)F)c1	29.8%	58.2%	51.5%	52.8%		37%
O=C(N/N=C/c1ccc(F)cc1)c1cccnc1Nc1cccc(C(F)(F)F)c1	36.5%	33.9%	43.2%	41.2%		41.3%
O=C(N/N=C/c1cccc(Cl)c1)c1cccnc1Nc1cccc(C(F)(F)F)c1	40.4%	77.8%	76.7%	63.5%	61.9%	55.2%
O=C(N/N=C/c1ccc(Cl)cc1)c1cccnc1Nc1cccc(C(F)(F)F)c1	43.7%	52.4%	67.2%	52.8%		48.5%
O=C(N/N=C/c1cccc(O)c1)c1cccnc1Nc1cccc(C(F)(F)F)c1	35.8%	67.5%	63.8%	65.4%		49%
O=C(N/N=C/c1ccc(O)cc1)c1cccnc1Nc1cccc(C(F)(F)F)c1	61.6%	59.2%	70.5%	68%		59.5%
O=C(N/N=C/c1ccc(O)c(O)c1)c1cccnc1Nc1cccc(C(F)(F)F)c1	21.1%	51.4%	50.8%	46.9%		38.2%
COc1cccc(/C=N/NC(=O)c2cccnc2Nc2cccc(C(F)(F)F)c2)c1	14.9%	52.8%	58.8%	49.7%		30.3%
COc1ccc(/C=N/NC(=O)c2cccnc2Nc2cccc(C(F)(F)F)c2)cc1	14%	50.4%	59.4%	42.4%	97.4%	26.5%
COc1ccc(/C=N/NC(=O)c2cccnc2Nc2cccc(C(F)(F)F)c2)c(OC)c1	19.8%	37.8%	55.7%	44.7%		24.1%
COc1ccc(/C=N/NC(=O)c2cccnc2Nc2cccc(C(F)(F)F)c2)cc1OC	52.9%	60.1%	70%	49%	80.7%	44%
COc1cc(/C=N/NC(=O)c2cccnc2Nc2cccc(C(F)(F)F)c2)cc(OC)c1OC	28.6%	55.9%	54.4%	40.6%		28.5%
CN(C)c1ccc(/C=N/NC(=O)c2cccnc2Nc2cccc(C(F)(F)F)c2)cc1	28.2%	61.3%	63.5%	51.4%		39.5%
O=C(N/N=C/c1cccnc1)c1cccnc1Nc1cccc(C(F)(F)F)c1	36%	59.1%	76.1%	62.4%	51.4%	52.4%
O=C(N/N=C/c1ccncc1)c1cccnc1Nc1cccc(C(F)(F)F)c1	45.9%	68.1%	70.2%	65.2%	85.6%	54.9%
CNc1ncccc1C(=O)N/N=C/c1ccccc1	14.8%	56.5%	67.6%	47.2%		22.7%
CNc1ncccc1C(=O)N/N=C/c1cccc(Cl)c1	40.4%	67.1%	68.6%	61.7%		39.5%
CNc1ncccc1C(=O)N/N=C/c1ccc(Cl)cc1	18.2%	46.5%	54.7%	54.1%		22.4%
CNc1ncccc1C(=O)N/N=C/c1cccc(OC)c1	42.2%	56.1%	64.6%	51.5%		49.5%
CNc1ncccc1C(=O)N/N=C/c1cccnc1	13.8%	66.3%	61.1%	43.7%		27.7%
CNc1ncccc1C(=O)N/N=C/c1ccncc1	15.5%	63.2%	80.4%	60.4%	90.6%	55%
O=C(O)c1cccnc1Nc1cccc(C(F)(F)F)c1 [NIFLUMIC ACID]	52%	64.1%	70.4%	70.1%	68.3%	70.6%
